According to patent publication US10081633B2, “Adenylyl cyclase inhibitors, pharmaceutical compositions and method of use thereof” (priority 2016, dated 2018):

Assays:
[1] = molecular target: T1, type V adenylyl cyclase (Homo sapiens, UniProt O95622); test: Adenylyl cyclase membrane assay, type V (cAMP ELISA); type: biochemical, mouse; details: cardiomyocyte membrane preparations from transgenic mice; forskolin 50 μM
T1 construct: from tissue; host or cells: heart (cardiomyocyte) membrane preparations from transgenic mice overproducing type V adenylyl cyclase
T1 sequence (O95622 whole entry): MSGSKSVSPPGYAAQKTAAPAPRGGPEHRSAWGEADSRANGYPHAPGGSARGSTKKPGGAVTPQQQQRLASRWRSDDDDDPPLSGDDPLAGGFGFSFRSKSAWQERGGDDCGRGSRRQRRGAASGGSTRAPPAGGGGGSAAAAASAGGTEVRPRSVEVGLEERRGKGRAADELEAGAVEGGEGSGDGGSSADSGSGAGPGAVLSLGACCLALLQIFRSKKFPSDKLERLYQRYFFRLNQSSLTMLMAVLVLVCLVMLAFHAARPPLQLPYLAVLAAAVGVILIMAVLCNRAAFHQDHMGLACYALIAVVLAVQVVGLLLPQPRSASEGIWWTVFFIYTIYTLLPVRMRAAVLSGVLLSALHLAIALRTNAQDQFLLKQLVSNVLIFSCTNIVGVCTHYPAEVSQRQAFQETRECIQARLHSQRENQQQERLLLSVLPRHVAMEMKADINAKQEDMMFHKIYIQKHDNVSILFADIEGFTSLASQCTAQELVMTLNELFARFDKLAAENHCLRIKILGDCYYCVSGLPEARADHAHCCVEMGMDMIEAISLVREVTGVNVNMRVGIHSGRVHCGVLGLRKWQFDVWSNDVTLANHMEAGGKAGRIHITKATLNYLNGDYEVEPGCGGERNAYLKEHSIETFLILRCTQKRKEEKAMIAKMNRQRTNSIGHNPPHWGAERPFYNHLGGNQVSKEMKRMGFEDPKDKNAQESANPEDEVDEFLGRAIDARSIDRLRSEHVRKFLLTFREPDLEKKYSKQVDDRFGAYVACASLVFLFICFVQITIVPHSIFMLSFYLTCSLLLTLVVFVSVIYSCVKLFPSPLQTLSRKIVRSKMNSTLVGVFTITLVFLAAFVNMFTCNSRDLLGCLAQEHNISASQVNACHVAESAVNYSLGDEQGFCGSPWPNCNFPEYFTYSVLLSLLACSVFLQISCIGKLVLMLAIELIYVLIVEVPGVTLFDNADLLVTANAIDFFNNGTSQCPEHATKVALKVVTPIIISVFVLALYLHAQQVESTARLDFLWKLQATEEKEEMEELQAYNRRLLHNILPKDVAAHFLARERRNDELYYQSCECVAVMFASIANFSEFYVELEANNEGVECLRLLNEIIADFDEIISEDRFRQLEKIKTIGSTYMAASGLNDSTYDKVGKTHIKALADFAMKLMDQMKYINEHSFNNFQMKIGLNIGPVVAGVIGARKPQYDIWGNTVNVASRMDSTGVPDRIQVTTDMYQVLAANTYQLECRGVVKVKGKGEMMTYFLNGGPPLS
Method: (§1) Compounds were assayed for their ability to attenuate cyclic AMP (cAMP) production in cardiomyocyte membrane preparations isolated from transgenic mice. Transgenic mice were separately bred to overproduce type V adenylyl cyclase, type VI adenylyl cyclase and type II adenylyl cyclase. cAMP levels were determined using a Cyclic AMP Competitive ELISA kit purchased from ThermoFischer Scientific (Cat# EMSCAMPL).
(§2) Buffer A (pH 8) was prepared comprising final concentrations of the following: 50 mM Tris, 1 mM EGTA, 1 mM EDTA, 1 mM DTT, 100 mM sucrose, 20 μg/mL TPCK (protease inhibitor), 20 μg/mL TLCK (protease inhibitor), 1 mM PMSF (protease inhibitor), 10 μg/mL leupeptin (protease inhibitor) and 10 μg/mL aprotinin (protease inhibitor).
(§3) Buffer B (pH 8) was prepared comprising final concentrations of the following: 50 mM Tris, 1 mM EDTA, 100 mM sucrose, 0.2 mM PMSF (protease inhibitor), 2 μg/mL leupeptin (protease inhibitor) and 2 μg/mL aprotinin (protease inhibitor).
Hearts were surgically excised from transgenic mice. Each isolated heart was treated with 3-4 mL of buffer A and cooled to 0 deg C. for 5 minutes. Treated hearts were homogenized for 10 seconds using a Polytron homogenizer cooled to 0 deg C. and set to speed 6. Homogenized hearts were centrifuged at 500×g at 4 deg C. for 10 minutes. Supernatants were transferred to ultracentrifuge tubes and centrifuged at 35,000 rpm at 4 deg C. for 40 minutes. Isolated pellets were combined with buffer B (500 μL) and sonicated to a suspension. Protein concentration was determined using a commercial Bradford assay kit. Membrane preparations were stored at −80 deg C.
Buffer R (pH 8) was prepared comprising final concentrations in water of the following: HEPES (20 mM), magnesium chloride (5 mM), EDTA (0.5 mM), ATP (0.1 mM), phospho creatinine (1 mM), creatinine phosphokinase (8 units/mL), IBMX (200 μM), forskolin (50 μM) or control (DMSO in water).
Inhibitor solutions were prepared by dilution of stock solutions of inhibitors (10 mM in DMSO) to a final concentration of 100 μM in water. Serial dilutions with water were subsequently made in order to determine IC50 values.
Reaction mixtures were prepared comprising buffer R (10 μL), inhibitor or control (10 μL), and water (75 μL).
A reaction mixture was pre-incubated at 30 deg C. for 5 minutes. A membrane preparation (e.g. 5 μL for type V Adenylyl Cyclase comprising 2 μg of membrane protein per 5 μL of preparation) was added and the mixture was incubated at 30 deg C. for 15 minutes. The reaction was stopped by addition of 0.1 M hydrochloric acid (100 μL) and cooled to 0 deg C. The resulting mixture was incubated at 0 deg C. for 60 minutes. The cAMP concentration of the supernatant was measured using a Cyclic AMP Competitive ELISA kit purchased from ThermoFischer Scientific.

[2] = test system: H9c2(2-1) myoblast cell line; test: Adenylyl cyclase cell-based assay, isoproterenol-stimulated cAMP; details: Rattus norvegicus; H9c2 cells, isoproterenol 5 mM
Method: (§4) H9c2(2-1) myoblast cell line was obtained from ATCC (CRL-1446). Cells (10^5 cells/mL) were seeded in 24-well plates at 5×10^4 cells per well. Cells were allowed to attach over 24 hours. The cells were then washed with PBS. Serum-free DMEM supplemented with 20 mM HEPES and 0.5 mM IBMX was added and the cells were incubated at 37 deg C. for 20 minutes. An Adenylyl Cyclase inhibitor (0.001-100 μM in DMSO/water with DMSO concentration <1%) was added and the mixture was incubated at 37 deg C. for 10 minutes. Forskolin (50 μM in DMSO/water with DMSO concentration <1%) was added and the mixture was incubated at 37 deg C. for 10 minutes. As an alternative to forskolin, isoproterenol (5 mM in DMSO/water with DMSO concentration <1%) was added and the mixture was incubated at 37 deg C. for 15 minutes. The media was removed and the cells were lysed by addition of 0.1 M hydrochloric acid (200 μL) 0 deg C. Lysed mixtures were maintained at 0 deg C. for 10-20 minutes and the plates were then centrifuged at 3,000×g for 5 minutes. cAMP levels in the supernatant were measured using the ThermoScientific cAMP competitive ELISA (EMSCAMPL) kit with samples acetylated in glass or polypropylene tubes.

[3] = molecular target: T2, type VI adenylyl cyclase (Homo sapiens, UniProt O43306); test: Adenylyl cyclase membrane assay, type VI (cAMP ELISA); type: biochemical, mouse; details: cardiomyocyte membrane preparations from transgenic mice; forskolin 50 μM
T2 construct: from tissue; host or cells: heart (cardiomyocyte) membrane preparations from transgenic mice overproducing type VI adenylyl cyclase
T2 sequence (O43306 whole entry): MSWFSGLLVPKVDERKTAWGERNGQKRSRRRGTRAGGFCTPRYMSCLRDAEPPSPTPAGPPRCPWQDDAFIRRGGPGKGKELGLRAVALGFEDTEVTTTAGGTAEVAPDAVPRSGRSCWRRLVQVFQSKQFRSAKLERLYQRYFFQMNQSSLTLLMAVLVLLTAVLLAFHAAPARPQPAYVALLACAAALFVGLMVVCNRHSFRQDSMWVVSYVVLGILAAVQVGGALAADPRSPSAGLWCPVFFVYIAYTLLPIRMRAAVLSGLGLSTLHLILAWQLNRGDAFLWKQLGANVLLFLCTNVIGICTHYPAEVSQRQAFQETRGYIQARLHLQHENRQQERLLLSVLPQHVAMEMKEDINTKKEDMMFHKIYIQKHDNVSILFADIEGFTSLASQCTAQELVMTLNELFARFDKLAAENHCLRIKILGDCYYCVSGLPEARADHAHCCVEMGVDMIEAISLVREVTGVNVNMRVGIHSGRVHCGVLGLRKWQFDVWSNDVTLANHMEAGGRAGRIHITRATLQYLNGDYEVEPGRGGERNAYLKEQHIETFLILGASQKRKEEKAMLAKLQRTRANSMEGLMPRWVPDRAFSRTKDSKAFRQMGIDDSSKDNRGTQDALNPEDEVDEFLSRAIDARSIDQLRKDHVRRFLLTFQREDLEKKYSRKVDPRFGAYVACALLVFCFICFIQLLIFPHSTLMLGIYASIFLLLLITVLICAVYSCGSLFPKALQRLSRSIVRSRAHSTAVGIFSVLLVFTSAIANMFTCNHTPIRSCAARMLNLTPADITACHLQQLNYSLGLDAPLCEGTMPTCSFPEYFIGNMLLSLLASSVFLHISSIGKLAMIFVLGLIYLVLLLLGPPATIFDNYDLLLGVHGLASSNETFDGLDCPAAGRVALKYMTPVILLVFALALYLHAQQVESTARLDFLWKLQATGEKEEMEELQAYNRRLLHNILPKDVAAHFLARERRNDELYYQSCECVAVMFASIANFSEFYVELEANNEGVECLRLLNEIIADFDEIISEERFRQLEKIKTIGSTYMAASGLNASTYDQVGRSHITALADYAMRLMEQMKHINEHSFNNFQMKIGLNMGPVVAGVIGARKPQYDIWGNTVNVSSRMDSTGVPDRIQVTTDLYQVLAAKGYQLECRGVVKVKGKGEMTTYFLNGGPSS
Method: as §1, §2, §3
Hearts were surgically excised from transgenic mice. Each isolated heart was treated with 3-4 mL of buffer A and cooled to 0 deg C. for 5 minutes. Treated hearts were homogenized for 10 seconds using a Polytron homogenizer cooled to 0 deg C. and set to speed 6. Homogenized hearts were centrifuged at 500×g at 4 deg C. for 10 minutes. Supernatants were transferred to ultracentrifuge tubes and centrifuged at 35,000 rpm at 4 deg C. for 40 minutes. Isolated pellets were combined with buffer B (500 μL) and sonicated to a suspension. Protein concentration was determined using a commercial Bradford assay kit. Membrane preparations were stored at −80 deg C. […]
(§5) A reaction mixture was pre-incubated at 30 deg C. for 5 minutes. […] The cAMP concentration of the supernatant was measured using a Cyclic AMP Competitive ELISA kit purchased from ThermoFischer Scientific.

[4] = test system: H9c2(2-1) myoblast cell line; test: Adenylyl cyclase cell-based assay, forskolin-stimulated cAMP; details: Rattus norvegicus; H9c2 cells, forskolin 50 μM
Method: as §4

[5] = molecular target: T3, type II adenylyl cyclase (Homo sapiens, UniProt Q08462); test: Adenylyl cyclase membrane assay, type II (cAMP ELISA); type: biochemical, mouse; details: cardiomyocyte membrane preparations from transgenic mice; forskolin 50 μM
T3 construct: from tissue; host or cells: heart (cardiomyocyte) membrane preparations from transgenic mice overproducing type II adenylyl cyclase
T3 sequence (Q08462 whole entry): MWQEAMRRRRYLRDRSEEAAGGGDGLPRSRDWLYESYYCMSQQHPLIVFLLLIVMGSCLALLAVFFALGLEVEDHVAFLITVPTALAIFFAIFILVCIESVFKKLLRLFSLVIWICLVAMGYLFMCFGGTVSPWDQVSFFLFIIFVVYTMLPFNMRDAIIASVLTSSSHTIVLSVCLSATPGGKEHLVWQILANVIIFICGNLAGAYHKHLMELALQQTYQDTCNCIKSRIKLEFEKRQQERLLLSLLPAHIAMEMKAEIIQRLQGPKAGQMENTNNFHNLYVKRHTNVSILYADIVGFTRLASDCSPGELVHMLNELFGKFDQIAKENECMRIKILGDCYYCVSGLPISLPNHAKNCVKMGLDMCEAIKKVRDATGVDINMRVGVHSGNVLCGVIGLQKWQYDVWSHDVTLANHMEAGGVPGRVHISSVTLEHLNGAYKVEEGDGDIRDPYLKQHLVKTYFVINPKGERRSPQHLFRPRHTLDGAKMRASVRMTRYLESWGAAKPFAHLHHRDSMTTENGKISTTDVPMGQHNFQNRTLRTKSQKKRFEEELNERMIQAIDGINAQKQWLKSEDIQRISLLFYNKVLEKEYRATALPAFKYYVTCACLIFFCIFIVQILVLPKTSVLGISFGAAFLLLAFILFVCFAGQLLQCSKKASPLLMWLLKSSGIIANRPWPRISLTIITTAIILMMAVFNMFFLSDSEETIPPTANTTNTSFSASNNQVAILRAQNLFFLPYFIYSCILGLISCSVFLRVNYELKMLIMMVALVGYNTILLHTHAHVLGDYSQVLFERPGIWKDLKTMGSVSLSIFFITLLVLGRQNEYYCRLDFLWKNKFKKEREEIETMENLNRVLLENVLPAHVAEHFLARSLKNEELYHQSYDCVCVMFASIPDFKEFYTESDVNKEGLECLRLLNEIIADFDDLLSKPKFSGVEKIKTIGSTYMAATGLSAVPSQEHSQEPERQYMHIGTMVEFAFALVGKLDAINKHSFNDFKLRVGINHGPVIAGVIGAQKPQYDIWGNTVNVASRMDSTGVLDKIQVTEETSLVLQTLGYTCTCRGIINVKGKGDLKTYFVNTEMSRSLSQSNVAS
Method: as §1, §2, §3
Hearts were surgically excised from transgenic mice. Each isolated heart was treated with 3-4 mL of buffer A and cooled to 0 deg C. for 5 minutes. […] Protein concentration was determined using a commercial Bradford assay kit. […]
as §5

[6] = test system: Mouse Ischemia and Reperfusion Model; test: Mouse ischemia and reperfusion model, infarct size; type: in vivo; details: mice; 30 min CAO, 24 hr CAR; i.v. infusion 0.06 mg/kg delivered at CAR; vehicle 33%
Method: 3-4-month-old male CS7BL/6 mice purchased from Jack-son Laboratory were anesthetized by an injection of 2% 2,2,2-tribromomethanol ([…] i.p.; Aldrich Chemical, St. Louis, Mo.). The mice were then orally intubated and mechanically ventilated. The heart was accessed via a thoracotomy at the fourth intercostals space and 7-0 silk suture passed under the left anterior descending coronary artery (LAD) at the point where it emerged from under the left atrial flap. Myocardial ischemia was achieved by occluding the LAD against a 22-gauge J-shaped stainless-steel probe and verified by visually noting the regional akinesis and blanching of the left ventricle. The chest was closed in layers, with the long end of the probe remaining outside the chest wall, allowing the animals to be removed from the ventilator. After 30 min. of ischemia, reperfusion was initiated by carefully pulling the probe out from the ligature and then removing it from the chest cavity. Following the surgical procedure, the mice were allowed to recover on a warmed surface, with supplemental oxygen delivered from a nose cone. I/R were verified by three lead electrocardiograms, which were obtained preoperatively, at the end of the ischemic interval and immediately after the initiation of reperfusion. Mice fully recovered from the surgical procedure were returned to standard animal housing conditions. […]

With `Nc1nc(C(F)(F)F)nc2c1ncn2[C@@H]1CC[C@@H](C(=O)NO)C1` [Compound 10l, (1R,3R)-3-(6-amino-2-(trifluoromethyl)-9H-purin-9-yl)-N-hydroxycyclopentanecarboxamide] the IC50 [1] was 6450 nM.

Compound `Nc1nc(F)nc2c1ncn2[C@@H]1CC[C@@H](C(=O)NO)C1` [Compound 10j, (1R,3R)-3-(6-amino-2-fluoro-9H-purin-9-yl)-N-hydroxycyclopentanecarboxamide] has an IC50 [2] of 2450 nM, an IC50 [1] of 80 nM and an IC50 [3] of 210 nM. It also gave an IC50 [4] of 2320 nM and an IC50 [5] of 5580 nM.

With `Nc1ncnc2c1nc(C(F)(F)F)n2[C@@H]1CC[C@@H](C(=O)NO)C1` [Compound 10p, (1R,3R)-3-(6-amino-8-(trifluoromethyl)-9H-purin-9-yl)-N-hydroxycyclopentanecarboxamide] the IC50 [1] was over 300000 nM.

Compound `Nc1ncnc2c1ncn2[C@@H]1C[C@@H](CO)[C@@H](C(=O)NO)C1` [Compound 10i, (1S,2R,4R)-4-(6-amino-9H-purin-9-yl)-N-hydroxy-2-(hydroxymethyl)cyclopentanecarboxamide] has an IC50 [1] of 3100 nM.

Work on `Nc1ncnc2c1ccn2[C@@H]1CC[C@@H](C(=O)O)C1` [Compound 10c, (1R,3R)-3-(4-amino-7H-pyrrolo[2,3-d]pyrimidin-7-yl)cyclopentanecarboxylic acid] yielded an IC50 [1] of over 100000 nM.

With `Nc1nccc2c1ccn2[C@@H]1CC[C@@H](C(=O)O)C1` [Compound 10e, (1R,3R)-3-(4-amino-1H-pyrrolo[3,2-c]pyridin-1-yl)cyclopentanecarboxylic acid] the IC50 [1] was over 10000 nM.

`Cc1nc2c(N)ncnc2n1[C@@H]1CC[C@@H](C(=O)NO)C1` [Compound 10o, (1R,3R)-3-(6-amino-8-methyl-9H-purin-9-yl)-N-hydroxycyclopentanecarboxamide] was tested, and the IC50 [1] was over 300000 nM.

Work on `Nc1ncnc2c1ncn2[C@@H]1C[C@H](CO)[C@@H](C(=O)O)C1` [Compound 10g, (1S,2S,4R)-4-(6-amino-9H-purin-9-yl)-2-(hydroxymethyl)cyclopentanecarboxylic acid] yielded an IC50 [1] of over 100000 nM.

`Nc1nc(N)c2ncn([C@@H]3CC[C@@H](C(=O)NO)C3)c2n1` [Compound 10m, (1R,3R)-3-(2,6-diamino-9H-purin-9-yl)-N-hydroxycyclopentanecarboxamide] showed an IC50 [1] of 3500 nM.

`Nc1ncnc2c1ncn2[C@@H]1O[C@H](CO)[C@@H](O)[C@H]1O` [adenosine, Adenosine, reference compound] was tested, and the “left ventricle (LV) infarct size” value [6] was 38%.

`Nc1ncnc2c1nc(N)n2[C@@H]1CC[C@@H](C(=O)NO)C1` [Compound 10q, (1R,3R)-3-(6,8-diamino-9H-purin-9-yl)-N-hydroxycyclopentanecarboxamide] showed an IC50 [1] of over 300000 nM.

For `Nc1ncnc2c1ncn2[C@@H]1CC[C@@H](C(=O)NO)C1` [Compound 10, (1R,3R)-3-(6-amino-9H-purin-9-yl)-N-hydroxycyclopentanecarboxamide], the IC50 [2] was 27000 nM, the “left ventricle (LV) infarct size” value [6] was 20% and the IC50 [1] was 150 nM. It also gave an IC50 [3] of 250 nM and an IC50 [4] of 9630 nM.

In the case of `C[C@H]1C[C@@H](n2cnc3c(N)ncnc32)C[C@@H]1C(=O)NO` [Compound 10s, (1S,2S,4R)-4-(6-amino-9H-purin-9-yl)-N-hydroxy-2-methylcyclopentanecarboxamide], the IC50 [1] is reported as 510 nM.

With `Nc1ncnc2c1nc(O)n2[C@@H]1CC[C@@H](C(=O)NO)C1` [Compound 10r, (1R,3R)-3-(6-amino-8-hydroxy-9H-purin-9-yl)-N-hydroxycyclopentanecarboxamide] the IC50 [1] was over 300000 nM.

Compound `Nc1nc(F)cc2c1ncn2[C@@H]1CC[C@@H](C(=O)NO)C1` [Compound 10v, (1R,3R)-3-(4-amino-6-fluoro-1H-imidazo[4,5-c]pyridin-1-yl)-N-hydroxycyclopentanecarboxamide] has an IC50 [2] of 1890 nM, an IC50 [1] of 30 nM and an IC50 [3] of 30 nM. For the same compound, the IC50 [4] was 1140 nM and the IC50 [5] was 1110 nM.

In the case of `Nc1nccc2c1ncn2[C@@H]1CC[C@@H](C(=O)NO)C1` [Compound 10b, (1R,3R)-3-(4-amino-1H-imidazo[4,5-c]pyridin-1-yl)-N-hydroxycyclopentanecarboxamide], the IC50 [1] is reported as 290 nM and the IC50 [4] is reported as 8500 nM.

For `Cc1nc(N)c2ncn([C@@H]3CC[C@@H](C(=O)NO)C3)c2n1` [Compound 10k, (1R,3R)-3-(6-amino-2-methyl-9H-purin-9-yl)-N-hydroxycyclopentanecarboxamide], the IC50 [1] was 4890 nM.

With `Nc1ncnc2c1ccn2[C@@H]1CC[C@@H](C(=O)NO)C1` [Compound 10d, (1R,3R)-3-(4-amino-7H-pyrrolo[2,3-d]pyrimidin-7-yl)-N-hydroxycyclopentanecarboxamide] the IC50 [1] was 980 nM.

`Nc1nc(O)nc2c1ncn2[C@@H]1CC[C@@H](C(=O)NO)C1` [Compound 10n, (1R,3R)-3-(6-amino-2-hydroxy-9H-purin-9-yl)-N-hydroxycyclopentanecarboxamide] gave an IC50 [1] of over 300000 nM.

`C[C@H]1C[C@@H](n2cnc3c(N)nc(F)nc32)C[C@@H]1C(=O)NO` [Compound 10t] showed an IC50 [1] of 130 nM.

Work on `Nc1nccc2c1ncn2[C@@H]1CC[C@@H](C(=O)O)C1` [Compound 10a, (1R,3R)-3-(4-amino-1H-imidazo[4,5-c]pyridin-1-yl)cyclopentanecarboxylic acid] yielded an IC50 [1] of over 10000 nM.

Work on `Nc1ncnc2c1ncn2[C@@H]1C[C@H](CO)[C@@H](C(=O)NO)C1` [Compound 10h, (1S,2S,4R)-4-(6-amino-9H-purin-9-yl)-N-hydroxy-2-(hydroxymethyl)cyclopentanecarboxamide] yielded an IC50 [1] of 1900 nM and an IC50 [4] of 18000 nM.
